Test results reported in EPA's ToxRefDB 2.

Legend:
mouse [1] = conditions: Reproduction/developmental toxicity screening test; cd1; Injection; Intraperitoneal; dose end: 14 day; group: maternal; reproductive / reproductive performance / fertility / fertility + reproductive / reproductive performance / implantations / implantations + …
rat [2] = conditions: Fertility (Segment I), wistar, Injection, Intraperitoneal, dose end: 7 day
rat [3] = conditions: Reproduction/developmental toxicity screening test; wistar; Injection; Intraperitoneal; dose end: 45 PND; group: parental; systemic / organ weight / ovary / nos
rat [4] = conditions: Multigenerational reproductive toxicity study, sprague dawley, Oral, Feed, dose end: 2 generation
rat [5] = conditions: Subchronic oral toxicity in rodents, other, Feed, dose end: 3 month, group: systemic
rat [6] = conditions: Combined chronic toxicity/carcinogenicity, other, Oral, Feed, dose end: 24 month, group: systemic
dog [7] = conditions: Subchronic oral toxicity in nonrodent, beagle, Feed, dose end: 90 day, group: systemic
dog [8] = conditions: Chronic toxicity; beagle; Oral; Feed; dose end: 52 week; group: systemic; systemic / in life observation / body weight / body weight gain + systemic / in life observation / clinical signs / abnormal gait + systemic…
mouse [9] = conditions: Carcinogenicity; other; Oral; Feed; dose end: 18 month; group: systemic; systemic / clinical chemistry / alanine aminotransferase (alt/sgpt) / alanine aminotransferase (alt/sgpt) + systemic / clinical chemistry / …
rat [10] = conditions: Prenatal developmental toxicity study, other, Oral, Gavage/Intubation, dose end: 15 GD
rabbit = conditions: Prenatal developmental toxicity study, new zealand white, Oral, Gavage/Intubation, dose end: 19 GD
rat [11] = conditions: Subchronic oral toxicity in rodents, sprague dawley, Feed, dose end: 90 day, group: systemic, systemic / hematology / platelet / platelet + systemic / urinalysis / ketones / ketones
[12] = group: maternal, reproductive / reproductive performance / estrous cycle / length
[13] = group: parental, systemic / clinical chemistry / estradiol / estradiol, free + systemic / pathology microscopic / vagina / diestrus
[14] = group: offspring, developmental / offspring survival late / lactation index / lactation index + systemic / in life observation / body weight / offspring (pup…
[15] = group: parental, systemic / in life observation / body weight / body weight gain + systemic / in life observation / food consumption / food consumption + …
[16] = systemic / clinical chemistry / alkaline phosphatase (alp/alk) / alkaline phosphatase (alp/alk) + systemic / organ weight / liver / absolute…
[17] = systemic / pathology microscopic / kidney / pigmentation + systemic / pathology microscopic / liver / hypertrophy
[18] = systemic / pathology microscopic / kidney / pigmentation + systemic / pathology microscopic / liver / hypertrophy + systemic / pathology …
[19] = systemic / in life observation / clinical signs / skin ulceration
[20] = systemic / in life observation / clinical signs / skin ulceration + systemic / clinical chemistry / alkaline phosphatase (alp/alk) / …
[21] = group: developmental, developmental / developmental malformation / bone / incomplete ossification + developmental / developmental malformation / bone / irregular …
[22] = group: maternal, systemic / in life observation / body weight / body weight gain
[23] = group: developmental, systemic / in life observation / body weight / fetal weight
[24] = group: maternal, reproductive / reproductive performance / aborted / aborted + reproductive / reproductive performance / postimplantation loss / …

## CC(=O)S[C@@H]1CC2=CC(=O)CC[C@]2(C)[C@H]2CC[C@@]3(C)[C@@H](CC[C@@]34CCC(=O)O4)[C@H]12 [Spironolactone]
Mouse [1]
  LEL: 100 mg/kg/day
  LOAEL: > 100 mg/kg/day
  NEL: < 100 mg/kg/day
  NOAEL: ≥ 100 mg/kg/day
Rat [2]; [12]
  LEL: 100 mg/kg/day
  LOAEL: > 100 mg/kg/day
  NEL: < 100 mg/kg/day
  NOAEL: ≥ 100 mg/kg/day
Rat [2]; [13]
  LEL: 100 mg/kg/day
  LOAEL: > 100 mg/kg/day
  NEL: < 100 mg/kg/day
  NOAEL: ≥ 100 mg/kg/day
Rat [3]
  LEL: 100 mg/kg/day
  LOAEL: > 100 mg/kg/day
  NEL: < 100 mg/kg/day
  NOAEL: ≥ 100 mg/kg/day

## C#CCOC(=O)[C@@H](C)Oc1ccc(Oc2ncc(Cl)cc2F)cc1 [Clodinafop-propargyl mixt.]
Rat [4]; [14]
  LEL: 31.7 mg/kg/day
  LOAEL: 31.7 mg/kg/day
  NEL: 3.21 mg/kg/day
  NOAEL: 3.21 mg/kg/day
Rat [4]; [15]
  LEL: 31.7 mg/kg/day
  LOAEL: 31.7 mg/kg/day
  NEL: 3.21 mg/kg/day
  NOAEL: 3.21 mg/kg/day
Rat [5]; [16]
  LEL: 8.24 mg/kg/day
  LOAEL: 8.24 mg/kg/day
  NOAEL: 0.92 mg/kg/day
Rat [5]; systemic / hematology / erythrocyte (rbc) count differential / erythrocyte (rbc) + systemic / hematology / hemoglobin (hgb) / hemoglobin (…
  NEL: 0.92 mg/kg/day
Rat [6]; [17]
  LEL: 0.324 mg/kg/day
  LOAEL: 0.324 mg/kg/day
Rat [6]; [18]
  NEL: 0.031 mg/kg/day
  NOAEL: 0.031 mg/kg/day
Dog [7]; [19]
  LEL: 1.73 mg/kg/day
  LOAEL: 1.73 mg/kg/day
Dog [7]; [20]
  NEL: 0.346 mg/kg/day
  NOAEL: 0.346 mg/kg/day
Dog [8]
  LEL: 15.2 mg/kg/day
  LOAEL: 15.2 mg/kg/day
  NEL: 3.38 mg/kg/day
  NOAEL: 3.38 mg/kg/day
Mouse [9]
  LEL: 11 mg/kg/day
  LOAEL: 11 mg/kg/day
  NEL: 1.1 mg/kg/day
  NOAEL: 1.1 mg/kg/day
Rat [10]; [21]
  LEL: 40 mg/kg/day
  LOAEL: 40 mg/kg/day
  NEL: 5 mg/kg/day
  NOAEL: 5 mg/kg/day
Rat [10]; [22]
  LEL: 5 mg/kg/day
  LOAEL: > 160 mg/kg/day
  NEL: < 5 mg/kg/day
  NOAEL: ≥ 160 mg/kg/day

## COc1cc(OC)nc(NC(=O)NS(=O)(=O)c2ncccc2C(=O)N(C)C)n1 [Nicosulfuron]
rabbit; [23]
  LEL: 100 mg/kg/day
  LOAEL: 1000 mg/kg/day
  NEL: < 100 mg/kg/day
  NOAEL: 500 mg/kg/day
rabbit; [24]
  LOAEL: 500 mg/kg/day
  NOAEL: 100 mg/kg/day
rabbit; [22]
  LEL: 100 mg/kg/day
  NEL: < 100 mg/kg/day
Rat [11]
  LEL: 15 mg/kg/day
  LOAEL: 15 mg/kg/day
  NEL: < 15 mg/kg/day
  NOAEL: < 15 mg/kg/day
